Measured values: ChEMBL document CHEMBL1201862, “PubChem BioAssay data set” (2004)
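Cells were grown in 96-well plates and exposed to each compound for 48 hours at five concentrations; endpoints were interpolated linearly between bracketing concentrations, or set to the highest concentration if not reached. GI50 = concentration required for 50% inhibition of growth.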 The source made the active and inactive calls. Cut-off read from the data, not from the text of the source: active = GI50 up to about 1.1 µM and inactive = higher.

What was measured:
Assay in all cases: NCI-60 cell line screen, 48 h
SN12C = tested on: SN12C
KM12 = tested on: KM12
HL-60 = tested on: HL-60
NCI-H522 = tested on: NCI-H522
NCI-H23 = tested on: NCI-H23
HOP-62 = tested on: HOP-62
NCI-H226 = tested on: NCI-H226
A549 = tested on: A549
NCI-H460 = tested on: NCI-H460
SF-539 = tested on: SF-539
OVCAR-4 = tested on: OVCAR-4
RPMI-8226 = tested on: RPMI-8226
786-0 = tested on: 786-0
A498 = tested on: A498
HCT-116 = tested on: HCT-116

Row | SMILES | GI50 (SN12C) | GI50 (KM12) | GI50 (HL-60) | GI50 (NCI-H522) | GI50 (NCI-H23) | GI50 (HOP-62) | GI50 (NCI-H226) | GI50 (A549) | GI50 (NCI-H460) | GI50 (SF-539) | GI50 (OVCAR-4) | GI50 (RPMI-8226) | GI50 (786-0) | GI50 (A498) | GI50 (HCT-116)
1 | COC(=O)C1CC(C(=O)OC)c2nc3cc(C)c(C)cc3nc21 (stereo not given) | > 100 µM (inactive) | > 100 µM (inactive) | > 100 µM (inactive) | > 100 µM (inactive) | > 100 µM (inactive) | > 100 µM (inactive) | > 100 µM (inactive) | > 100 µM (inactive) | > 100 µM (inactive) | > 100 µM (inactive) | > 100 µM (inactive) | > 100 µM (inactive) | > 100 µM (inactive) | > 100 µM (inactive) | –
2 | CCOc1ccccc1/N=N/c1ccc2oc(=O)c(C(C)=O)cc2c1 | > 100 µM (inactive) | > 100 µM (inactive) | > 100 µM (inactive) | 58.9 µM (inactive) | > 100 µM (inactive) | > 100 µM (inactive) | – | > 100 µM (inactive) | > 10 µM (inactive) | > 100 µM (inactive) | > 100 µM (inactive) | > 100 µM (inactive) | 54.6 µM (inactive) | > 100 µM (inactive) | > 100 µM (inactive)
3 | O=C1CCC2(c3ccccc3)OCC([C@@H](O)c3ccccc3)N12 (stereo not given in full) | > 100 µM (inactive) | > 100 µM (inactive) | – | – | > 100 µM (inactive) | > 100 µM (inactive) | – | > 100 µM (inactive) | > 100 µM (inactive) | > 100 µM (inactive) | > 100 µM (inactive) | > 100 µM (inactive) | > 100 µM (inactive) | > 100 µM (inactive) | > 100 µM (inactive)
4 | O=[N+]([O-])c1cc(-c2nnc(S)[nH]2)ccc1O | > 100 µM (inactive) | > 100 µM (inactive) | > 100 µM (inactive) | – | > 100 µM (inactive) | > 100 µM (inactive) | – | > 100 µM (inactive) | 44.4 µM (inactive) | > 100 µM (inactive) | > 100 µM (inactive) | – | > 100 µM (inactive) | > 100 µM (inactive) | > 100 µM (inactive)
5 | C[N+](C)(C)CC1CCCC/C1=N\O (stereo not given) | > 100 µM (inactive) | > 100 µM (inactive) | > 100 µM (inactive) | > 100 µM (inactive) | > 100 µM (inactive) | > 100 µM (inactive) | – | > 100 µM (inactive) | > 100 µM (inactive) | > 100 µM (inactive) | > 100 µM (inactive) | > 100 µM (inactive) | > 100 µM (inactive) | > 100 µM (inactive) | > 100 µM (inactive)
6 | CC(C)C1CNC2N1C(=O)C2(C)OCc1ccccc1 (stereo not given) | > 100 µM (inactive) | – | > 100 µM (inactive) | – | > 100 µM (inactive) | > 100 µM (inactive) | 40.6 µM (inactive) | > 100 µM (inactive) | > 100 µM (inactive) | > 100 µM (inactive) | > 100 µM (inactive) | 91.2 µM (inactive) | > 100 µM (inactive) | > 100 µM (inactive) | > 100 µM (inactive)
7 | O=C(O)C1OC(Oc2cc(O)c3c(=O)cc(-c4ccc(O)cc4)oc3c2)C(O)C(O)C1O (stereo not given) | > 100 µM (inactive) | > 100 µM (inactive) | > 100 µM (inactive) | > 100 µM (inactive) | > 100 µM (inactive) | > 100 µM (inactive) | > 100 µM (inactive) | > 100 µM (inactive) | > 100 µM (inactive) | > 100 µM (inactive) | > 100 µM (inactive) | – | 77.3 µM (inactive) | – | > 100 µM (inactive)
8 | O=C(/C=C/c1c(O)ccc2ccccc12)c1cccc(O)c1 | > 100 µM (inactive) | > 100 µM (inactive) | 20.7 µM (inactive) | 63.4 µM (inactive) | > 79.8 µM (inactive) | > 100 µM (inactive) | > 100 µM (inactive) | > 100 µM (inactive) | > 100 µM (inactive) | > 100 µM (inactive) | > 70 µM (inactive) | 64.3 µM (inactive) | > 100 µM (inactive) | > 100 µM (inactive) | > 100 µM (inactive)
9 | COc1cc(NCC(C#N)C#N)ccc1/N=N/c1ccc(Cl)cc1 | 38.8 µM (inactive) | 14.2 µM (inactive) | – | 16.6 µM (inactive) | 23.8 µM (inactive) | 19.9 µM (inactive) | 30.5 µM (inactive) | 33.4 µM (inactive) | 23.2 µM (inactive) | 25.1 µM (inactive) | 37.1 µM (inactive) | 28.6 µM (inactive) | 20 µM (inactive) | 44.7 µM (inactive) | 23.7 µM (inactive)
10 | COC(=O)C1=CCON(c2ccccc2)C1c1ccccc1 (stereo not given) | > 10 µM (inactive) | 45 µM (inactive) | 24.9 µM (inactive) | 20.7 µM (inactive) | 33.2 µM (inactive) | > 100 µM (inactive) | 93.8 µM (inactive) | 40.2 µM (inactive) | 48.2 µM (inactive) | > 100 µM (inactive) | > 10 µM (inactive) | 29.2 µM (inactive) | > 100 µM (inactive) | – | –
11 | O=C(O)c1ccc([Se][Se]c2ccc(C(=O)O)cc2)cc1 | 37.5 µM (inactive) | 29 µM (inactive) | – | 23.6 µM (inactive) | 19.3 µM (inactive) | – | 26.8 µM (inactive) | 25.8 µM (inactive) | 6.65 µM (inactive) | 36.1 µM (inactive) | 19.2 µM (inactive) | 21.2 µM (inactive) | 34 µM (inactive) | – | 18.1 µM (inactive)
12 | O=c1cc(-c2ccccc2)[nH]c2cc(Cl)cc(Cl)c12 | 69 µM (inactive) | 5.04 µM (inactive) | > 100 µM (inactive) | 12.1 µM (inactive) | 57.7 µM (inactive) | 25.8 µM (inactive) | 37.8 µM (inactive) | 53.3 µM (inactive) | 59 µM (inactive) | 29.5 µM (inactive) | 20.5 µM (inactive) | > 100 µM (inactive) | 22 µM (inactive) | – | 31.6 µM (inactive)
13 | O=C1C2=C(c3ccccc31)C(c1ccccc1)NC(S)=N2 (stereo not given) | > 100 µM (inactive) | 41.9 µM (inactive) | 17.9 µM (inactive) | 33.7 µM (inactive) | > 100 µM (inactive) | > 100 µM (inactive) | > 100 µM (inactive) | 45.9 µM (inactive) | 91.6 µM (inactive) | 19.2 µM (inactive) | 26.1 µM (inactive) | 40.6 µM (inactive) | 27.4 µM (inactive) | > 100 µM (inactive) | 29 µM (inactive)
14 | COc1cc(O)c2c(c1O)C(=O)c1cc(C)ncc1C2=O | 17.9 µM (inactive) | 17.9 µM (inactive) | 17.7 µM (inactive) | 27 µM (inactive) | 12.4 µM (inactive) | 28.8 µM (inactive) | 45 µM (inactive) | 17 µM (inactive) | 13.8 µM (inactive) | 17.4 µM (inactive) | 35.4 µM (inactive) | 22.9 µM (inactive) | 23 µM (inactive) | > 50 µM (inactive) | 16.5 µM (inactive)
15 | COc1ccc2nc(-c3cccs3)cc(C(O)CN3CCSCC3)c2c1 (stereo not given) | 25.1 µM (inactive) | 22.3 µM (inactive) | 2.58 µM (inactive) | 14.1 µM (inactive) | 20.9 µM (inactive) | 24.2 µM (inactive) | – | 30.1 µM (inactive) | 16.3 µM (inactive) | 22.1 µM (inactive) | 8.3 µM (inactive) | 10.5 µM (inactive) | 16.8 µM (inactive) | – | –
16 | N#CNc1nc(C(=O)Nc2ccc(Cl)cc2)cc(-c2ccccc2)n1 | > 100 µM (inactive) | > 100 µM (inactive) | > 100 µM (inactive) | – | > 100 µM (inactive) | > 100 µM (inactive) | > 100 µM (inactive) | > 100 µM (inactive) | – | > 100 µM (inactive) | > 100 µM (inactive) | > 100 µM (inactive) | > 100 µM (inactive) | > 100 µM (inactive) | > 100 µM (inactive)
17 | Clc1ccc2[nH]c(CCSCCc3nc4ccc(Cl)cc4[nH]3)nc2c1 | 14.4 µM (inactive) | 15.2 µM (inactive) | 0.491 µM (active) | 12.2 µM (inactive) | 13.6 µM (inactive) | 15.2 µM (inactive) | 13.4 µM (inactive) | 10 µM (inactive) | 15.1 µM (inactive) | 16.5 µM (inactive) | 14.2 µM (inactive) | 2.34 µM (inactive) | 13.5 µM (inactive) | – | 6.21 µM (inactive)
18 | Cc1cc(Cl)ccc1NC1=NC(=O)C(CC(=O)Nc2ccc(Cl)cc2Cl)S1 (stereo not given) | > 100 µM (inactive) | > 100 µM (inactive) | – | – | > 100 µM (inactive) | > 100 µM (inactive) | – | > 100 µM (inactive) | > 100 µM (inactive) | > 100 µM (inactive) | > 100 µM (inactive) | > 100 µM (inactive) | > 100 µM (inactive) | – | –
19 | CC1CC(=O)C(CC(=O)O)[C@H]1C(C(=O)C(=O)Nc1cc(Cl)ccc1Cl)[N+](=O)[O-] (stereo not given in full) | > 100 µM (inactive) | > 100 µM (inactive) | > 100 µM (inactive) | > 100 µM (inactive) | – | > 100 µM (inactive) | > 100 µM (inactive) | > 100 µM (inactive) | > 100 µM (inactive) | > 100 µM (inactive) | – | > 100 µM (inactive) | > 100 µM (inactive) | > 100 µM (inactive) | –
20 | Nc1ccc(O)c2c1C(=O)c1c(N)ccc(O)c1C2=O | > 100 µM (inactive) | > 100 µM (inactive) | > 100 µM (inactive) | > 100 µM (inactive) | > 100 µM (inactive) | > 100 µM (inactive) | – | > 100 µM (inactive) | > 100 µM (inactive) | > 100 µM (inactive) | > 100 µM (inactive) | > 100 µM (inactive) | > 100 µM (inactive) | > 100 µM (inactive) | > 100 µM (inactive)
